For eleven molecules, IC50 results are on record in patent US20260193271A1, “PAN-KRAS INHIBITOR COMPOUND” (ADLAI NORTYE BIOPHARMA CO., LTD., priority 2022, published 2026).

Each structure is given as a SMILES string.

For one experiment, the system named is SW480 (G12V). In words: In vitro cell proliferation inhibition test (CellTiter-Glo), SW480. Type of experiment: cell-based. The conditions noted are these: Homo sapiens, SW480 colon cell line, KRAS (p.G12V), 72 h co-incubation. The text has this: (§1) Test Example 1: In Vitro Cell Proliferation Inhibition Test
(§2) Due to the diversity of RAS mutations and in order to evaluate the activity of compounds in different RAS mutation cell lines, we selected KRAS^WT, KRAS^G12C, KRAS^G12D, KRAS^G12V and BRAF mutation cell lines (see the table below) for in vitro activity evaluation and screening of compounds.
(§3) Protocol: CellTiter-Glo® Cell Luminescent Viability Assay (Promega)
(§4) According to the doubling time of different cell lines, different numbers of cells (1000-5000 cells/well) were seeded in 96-well plates containing 180 μl of corresponding culture medium and cultured overnight in a cell culture incubator at 37° C. with 5% CO2. On the second day, the test compound was pre-diluted 3-fold with culture medium, with the highest concentration being 100 μM, for a total of 10 concentration gradients; then 20 μl of culture medium containing different concentrations of the compound was added to the cells in the 96-well plate to ensure that the final concentration of the compound was up to 10 μM, with 10 concentration gradients of 3-fold dilution. After the cells and compounds were co-incubated for 72 h, the 96-well plate was removed from the incubator and equilibrated at room temperature for 30 min. Then, 25 μl of CellTiter-Glo® Reagent was added to each well and mixed thoroughly. The mixture was incubated at room temperature for 10 min, and then 100 μl of the sample was transferred to a white 96-well plate (OptiPlate™-96, PerkinElmer). The […] signal value was read using a multi-function microplate reader (SpectraMax® i3x, Molecular devices). The signal values were then standardized, and the curve was fitted using a four-parameter regression equation to calculate the half maximal inhibitory concentration (IC50) of the compound on the cell line.
(In ATP-based viability assays light output follows the ATP content of the culture.)

Another experiment relates to AsPC-1 (G12D). Description: In vitro cell proliferation inhibition test (CellTiter-Glo), AsPC-1. The conditions noted are these: Homo sapiens, ASPC1, AsPC-1 pancreas cell line, KRAS (p.G12D), 72 h co-incubation. Type of experiment: cell-based.
From the text: as §1, §2, §3, §4

A word on the IC50: it is the concentration that inhibits the measured activity by half. As for `CCn1c(-c2cc(-c3ccc(CN4CCN(C)CC4)cc3)cnc2[C@H](C)OC)c2c3cc(ccc31)-c1csc(n1)C[C@H](NC(=O)[C@H]1C[C@@H]1C)C(=O)N1CCC[C@H](N1)C(=O)OCC(C)(C)C2` (atropisomer, axis not shown) [Compound 8, (1S,2S)-N-((6^3S,4S,Z)-1^1-ethyl-1^2-(2-((S)-1-methoxyethyl)-5-(4-((4-methylpiperazin-1-yl)methyl)phenyl)pyridin-3-yl)-10,10-dimethyl-5,7-dioxo-6^1,6^2,6^3,6^4,6^5,6^6-hexahydro-1^1H-8-oxa-2(4,2)-thiazola-1(5,3)-indola-6(1,3)-pyridazinacycloundecaphane-4-yl)-2-methylcyclopropane-1-carboxamide], the half-inhibitory concentration (IC50) is 1.4 nM with SW480 (G12V) and 0.7 nM in the experiment on AsPC-1 (G12D).

For `CCn1c(-c2cc(-c3cccc(CN4CCOCC4)c3)cnc2[C@H](C)OC)c2c3cc(ccc31)-c1csc(n1)C[C@H](NC(=O)[C@H]1C[C@@H]1C)C(=O)N1CCC[C@H](N1)C(=O)OCC(C)(C)C2` (atropisomer, axis not shown) [Compound 9, (1S,2S)-N-((6^3S,4S,Z)-1^1-ethyl-1^2-(2-((S)-1-methoxyethyl)-5-(3-(morpholinomethyl)phenyl)pyridin-3-yl)-10,10-dimethyl-5,7-dioxo-6^1,6^2,6^3,6^4,6^5,6^6-hexahydro-1^1H-8-oxa-2(4,2)-thiazola-1(5,3)-indola-6(1,3)-pyridazinacycloundecaphane-4-yl)-2-methylcyclopropane-1-carboxamide], the IC50 in the experiment on SW480 (G12V) was 18 nM; in the experiment with AsPC-1 (G12D), 3.5 nM.

With `CCn1c(-c2cc(-c3ccc4c(c3)CN(C)CC4)cnc2[C@H](C)OC)c2c3cc(ccc31)-c1csc(n1)C[C@H](NC(=O)[C@H]1C[C@@H]1C)C(=O)N1CCC[C@H](N1)C(=O)OCC(C)(C)C2` (atropisomer, axis not shown) [Compound 10, (1S,2S)-N-((6^3S,4S,Z)-1^1-ethyl-1^2-(2-((S)-1-methoxyethyl)-5-(2-methyl-1,2,3,4-tetrahydroisoquinolin-7-yl)pyridin-3-yl)-10,10-dimethyl-5,7-dioxo-6^1,6^2,6^3,6^4,6^5,6^6-hexahydro-1^1H-8-oxa-2(4,2)-thiazola-1(5,3)-indola-6(1,3)-pyridazinacycloundecaphane-4-yl)-2-methylcyclopropane-1-carboxamide], the results for the IC50 in the experiment with SW480 (G12V) and in the experiment with AsPC-1 (G12D) were 0.5 nM and 18 nM, respectively.

As for `CCn1c(-c2cc(-c3cc(CN4CCOCC4)ccn3)cnc2[C@H](C)OC)c2c3cc(ccc31)-c1csc(n1)C[C@H](NC(=O)[C@H]1C[C@@H]1C)C(=O)N1CCC[C@H](N1)C(=O)OCC(C)(C)C2` (atropisomer, axis not shown) [Compound 11, (1S,2S)-N-((6^3S,4S,Z)-1^1-ethyl-1^2-(6′-((S)-1-methoxyethyl)-4-(morpholinomethyl)-[2,3′-bipyridin]-5′-yl)-10,10-dimethyl-5,7-dioxo-6^1,6^2,6^3,6^4,6^5,6^6-hexahydro-1^1H-8-oxa-2(4,2)-thiazola-1(5,3)-indola-6(1,3)-pyridazinacycloundecaphane-4-yl)-2-methylcyclopropane-1-carboxamide], the IC50 turned out to be 3.2 nM with SW480 (G12V) and 2.1 nM in the experiment with AsPC-1 (G12D).

Take `CCn1c(-c2cc(-c3ccc(CN4CCOCC4)cn3)cnc2[C@H](C)OC)c2c3cc(ccc31)-c1csc(n1)C[C@H](NC(=O)[C@H]1C[C@@H]1C)C(=O)N1CCC[C@H](N1)C(=O)OCC(C)(C)C2` (atropisomer, axis not shown) [Compound 12, (1S,2S)-N-((6^3S,4S,Z)-1^1-ethyl-1^2-(6′-((S)-1-methoxyethyl)-5-(morpholinomethyl)-[2,3′-bipyridin]-5′-yl)-10,10-dimethyl-5,7-dioxo-6^1,6^2,6^3,6^4,6^5,6^6-hexahydro-1^1H-8-oxa-2(4,2)-thiazola-1(5,3)-indola-6(1,3)-pyridazinacycloundecaphane-4-yl)-2-methylcyclopropane-1-carboxamide]: the 50% inhibitory concentration (IC50) is 6.6 nM in the experiment with SW480 (G12V) and 16 nM in the experiment on AsPC-1 (G12D).

On to `CCn1c(-c2cc(-c3cnn(CCN4CCOCC4)c3)cnc2[C@H](C)OC)c2c3cc(ccc31)-c1csc(n1)C[C@H](NC(=O)[C@H]1C[C@@H]1C)C(=O)N1CCC[C@H](N1)C(=O)OCC(C)(C)C2` (atropisomer, axis not shown) [Compound 15, (1S,2S)-N-((6^3S,4S,Z)-1^1-ethyl-1^2-(2-((S)-1-methoxyethyl)-5-(1-(2-morpholinoethyl)-1H-pyrazol-4-yl)pyridin-3-yl)-10,10-dimethyl-5,7-dioxo-6^1,6^2,6^3,6^4,6^5,6^6-hexahydro-1^1H-8-oxa-2(4,2)-thiazola-1(5,3)-indola-6(1,3)-pyridazinacycloundecaphane-4-yl)-2-methylcyclopropane-1-carboxamide], for which the IC50 in the experiment on SW480 (G12V) was found to be 6 nM; in the experiment with AsPC-1 (G12D) it was 3 nM.

Regarding `CCn1c(-c2cc(-c3cnn([C@@H]4CCN(C)C4)c3)cnc2[C@H](C)OC)c2c3cc(ccc31)-c1csc(n1)C[C@H](NC(=O)[C@H]1C[C@@H]1C)C(=O)N1CCC[C@H](N1)C(=O)OCC(C)(C)C2` (atropisomer, axis not shown) [Compound 16, (1S,2S)-N-((6^3S,4S,Z)-1^1-ethyl-1^2-(2-((S)-1-methoxyethyl)-5-(1-((R)-1-methylpyrrolidin-3-yl)-1H-pyrazol-4-yl)pyridin-3-yl)-10,10-dimethyl-5,7-dioxo-6^1,6^2,6^3,6^4,6^5,6^6-hexahydro-1^1H-8-oxa-2(4,2)-thiazola-1(5,3)-indola-6(1,3)-pyridazinacycloundecaphane-4-yl)-2-methylcyclopropane-1-carboxamide], the IC50 in the experiment on SW480 (G12V) worked out at 7.9 nM; in the experiment on AsPC-1 (G12D), 1.6 nM.

Turning to `CCn1c(-c2cc(-c3cnn(C4CN(C)C4)c3)cnc2[C@H](C)OC)c2c3cc(ccc31)-c1csc(n1)C[C@H](NC(=O)[C@H]1[C@H](C)[C@@H]1C)C(=O)N1CCC[C@H](N1)C(=O)OCC(C)(C)C2` (atropisomer, axis not shown) [Compound 17, (1r,2R,3S)-N-((6^3S,4S,Z)-1^1-ethyl-1^2-(2-((S)-1-methoxyethyl)-5-(1-(1-methylazetidin-3-yl)-1H-pyrazol-4-yl)pyridin-3-yl)-10,10-dimethyl-5,7-dioxo-6^1,6^2,6^3,6^4,6^5,6^6-hexahydro-1^1H-8-oxa-2(4,2)-thiazola-1(5,3)-indola-6(1,3)-pyridazinacycloundecaphane-4-yl)-2,3-dimethylcyclopropane-1-carboxamide], the half-maximal inhibitory concentration (IC50) stood at 2.5 nM with SW480 (G12V) and 0.31 nM in the experiment with AsPC-1 (G12D).

Consider `CCn1c(-c2cc(-c3cnn(C4CCN(C)CC4)c3)cnc2[C@H](C)OC)c2c3cc(ccc31)-c1csc(n1)C[C@H](NC(=O)[C@H]1[C@H](C)[C@@H]1C)C(=O)N1CCC[C@H](N1)C(=O)OCC(C)(C)C2` (atropisomer, axis not shown) [Compound 18, (1r,2R,3S)-N-((6^3S,4S,Z)-1^1-ethyl-1^2-(2-((S)-1-methoxyethyl)-5-(1-(1-methylpiperidin-4-yl)-1H-pyrazol-4-yl)pyridin-3-yl)-10,10-dimethyl-5,7-dioxo-6^1,6^2,6^3,6^4,6^5,6^6-hexahydro-1^1H-8-oxa-2(4,2)-thiazola-1(5,3)-indola-6(1,3)-pyridazinacycloundecaphane-4-yl)-2,3-dimethylcyclopropane-1-carboxamide], for which the IC50 in the experiment with SW480 (G12V) turned out to be 1.4 nM; in the experiment on AsPC-1 (G12D), 0.45 nM.

As to `CCn1c(-c2cc(-c3cnn(CCN4CCN(C)CC4)c3)cnc2[C@H](C)OC)c2c3cc(ccc31)-c1csc(n1)C[C@H](NC(=O)[C@H]1[C@H](C)[C@@H]1C)C(=O)N1CCC[C@H](N1)C(=O)OCC(C)(C)C2` (atropisomer, axis not shown) [Compound 19, (1r,2R,3S)-N-((6^3S,4S,Z)-1^1-ethyl-1^2-(2-((S)-1-methoxyethyl)-5-(1-(2-(4-methylpiperazin-1-yl)ethyl)-1H-pyrazol-4-yl)pyridin-3-yl)-10,10-dimethyl-5,7-dioxo-6^1,6^2,6^3,6^4,6^5,6^6-hexahydro-1^1H-8-oxa-2(4,2)-thiazola-1(5,3)-indola-6(1,3)-pyridazinacycloundecaphane-4-yl)-2,3-dimethylcyclopropane-1-carboxamide], the IC50 with SW480 (G12V) worked out at 4.5 nM; in the experiment with AsPC-1 (G12D) it was 0.57 nM.

As to `CCn1c(-c2cc(-c3nc(C)n(C)n3)cnc2[C@H](C)OC)c2c3cc(ccc31)-c1csc(n1)C[C@H](NC(=O)[C@H]1C[C@@H]1C)C(=O)N1CCC[C@H](N1)C(=O)OCC(C)(C)C2` (atropisomer, axis not shown) [Compound 20, (1S,2S)-N-((6^3S,4S,Z)-1^2-(5-(4,5-dimethyl-4H-1,2,4-triazol-3-yl)-2-((S)-1-methoxyethyl)pyridin-3-yl)-1^1-ethyl-10,10-dimethyl-5,7-dioxo-6^1,6^2,6^3,6^4,6^5,6^6-hexahydro-1^1H-8-oxa-2(4,2)-thiazola-1(5,3)-indola-6(1,3)-pyridazinacycloundecaphane-4-yl)-2-methylcyclopropane-1-carboxamide], the IC50 came out at 3 nM in the experiment with SW480 (G12V) and 3.4 nM in the experiment with AsPC-1 (G12D).
